{
  "source": "paper PMC6001238",
  "about": "“Iterative Chemical Engineering of Vancomycin Leads to Novel Vancomycin Analogs With a High in Vitro Therapeutic Index” (Frontiers in Microbiology, 2018)",
  "key": {"[1]": {"test_system": "Clostridium difficile ATJ ribotype 014/20", "test": "MIC, plate drop assay, C. difficile ATJ ribotype 014/20", "type": "cell-based", "settings": "for MIC-fold improvement vs. vancomycin: C. difficile ATJ ribotype 014/20", "description": "(§1) Bacterial lawns of both C. difficile strains were prepared by adding 0.5 mL overnight culture to 8 mL sloppy BHI agar (0.4% agar) supplemented with 1.5 g/L CaCl2⋅2H2O and 81.2 g/L MgCl2⋅6H2O, and pouring the mixture into Petri plates. A twofold dilution series of the selected vancomycin analogs, vancomycin ([…]) and daptomycin (25 μM) was spotted (10 μL) on the bacterial lawn. Spots were air-dried and the plates were incubated overnight at 37°C in an anaerobic cabinet. Ultrapure water was included as negative control. The assay was performed in triplicate. Inhibition was observed by cleared spots."}, "[2]": {"test_system": "E. faecalis VRE 53", "test": "MIC, broth microdilution, vancomycin-resistant E. faecalis VRE 53 (VanA)", "type": "cell-based, Enterococcus faecalis", "settings": "for MIC: read-out: MIC", "outline": "(§2)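 MIC values come from broth microdilution run to CLSI susceptibility-testing standards. Ultrapure water and uninoculated broth served as controls. In one series, vancomycin at a final 10 μM was co-dosed with the analogue or comparator antibiotic.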"}, "[3]": {"test_system": "MRSA KS2", "test": "MIC, broth microdilution, MRSA KS2", "type": "cell-based, Staphylococcus aureus", "outline": "as §2"}, "[4]": {"test_system": "MRSA KS1", "test": "MIC, broth microdilution, MRSA KS1", "type": "cell-based, Staphylococcus aureus", "outline": "as §2"}, "[5]": {"test_system": "S. aureus VRSA", "test": "MIC, broth microdilution, vancomycin-resistant S. aureus (VRSA)", "type": "cell-based, Staphylococcus aureus", "outline": "as §2"}, "[6]": {"test_system": "E. faecalis VRE 29", "test": "MIC, broth microdilution, vancomycin-resistant E. faecalis VRE 29 (VanA)", "type": "cell-based, Enterococcus faecalis", "outline": "as §2"}, "[7]": {"test_system": "MRSA KS6", "test": "MIC, broth microdilution, MRSA KS6", "type": "cell-based, Staphylococcus aureus", "outline": "as §2"}, "[8]": {"test_system": "S. aureus VISA/HIP5827", "test": "MIC, broth microdilution, vancomycin-intermediate S. aureus VISA HIP5827", "type": "cell-based, Staphylococcus aureus", "outline": "as §2"}, "[9]": {"test_system": "E. faecalis VRE 37", "test": "MIC, broth microdilution, vancomycin-resistant E. faecalis VRE 37 (VanA)", "type": "cell-based, Enterococcus faecalis", "outline": "as §2"}, "[10]": {"test_system": "MRSA KS89", "test": "MIC, broth microdilution, MRSA KS89", "type": "cell-based, Staphylococcus aureus", "outline": "as §2"}, "[11]": {"test_system": "Murine leukemia (L1210) cells", "test": "Cytostatic activity, L1210 cell proliferation", "type": "cell-based", "settings": "mean ± SD of three experiments; highest concentration tested 250 µM; 2 days; read-out: Toxicity (IC50) L1210", "outline": "(§3)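 Coulter counter cell counts after 37°C culture with compound; IC50 = concentration giving 50% growth inhibition vs negative control. Incubation: L1210 2 d, CEM 3 d, HeLa 4 d. Suspension density before mixing with an equal volume of dilution: 300,000–500,000 cells/mL.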"}, "[12]": {"test_system": "Clostridium difficile AIU ribotype 027", "test": "MIC, plate drop assay, C. difficile AIU ribotype 027", "type": "cell-based", "settings": "for MIC-fold improvement vs. vancomycin: C. difficile AIU ribotype 027", "description": "as §1"}, "[13]": {"test_system": "human cervix carcinoma (HeLa) cells", "test": "Cytostatic activity, HeLa cell proliferation", "type": "cell-based", "settings": "mean ± SD of three experiments; highest concentration tested 250 µM; 4 days; read-out: Toxicity (IC50) HeLa", "outline": "as §3"}, "[14]": {"test_system": "human T-lymphocyte (CEM) cells", "test": "Cytostatic activity, CEM cell proliferation", "type": "cell-based", "settings": "mean ± SD of three experiments; highest concentration tested 250 µM; 3 days; read-out: Toxicity (IC50) CEM", "outline": "as §3"}, "[15]": {"test_system": "E. faecalis VRE 6", "test": "MIC, broth microdilution, vancomycin-resistant E. faecalis VRE 6 (VanA)", "type": "cell-based, Enterococcus faecalis", "settings": "for MIC: read-out: MIC", "outline": "as §2"}, "[16]": {"test_system": "S. aureus VSSA (ATCC 6538)", "test": "MIC, broth microdilution, vancomycin-sensitive S. aureus (VSSA/MSSA, ATCC 6538)", "type": "cell-based, Staphylococcus aureus", "outline": "as §2"}, "[17]": {"test_system": "L1210, CEM and HeLa cell lines", "test": "Cytostatic activity, average or summary over L1210, CEM and HeLa", "type": "cell-based", "settings": "average of L1210, CEM and HeLa; read-out: Toxicity (IC50) Average", "outline": "as §3"}, "[18]": {"test_system": "E. faecalis VSE 1", "test": "MIC, broth microdilution, vancomycin-sensitive E. faecalis (VSE 1)", "type": "cell-based, Enterococcus faecalis", "settings": "for MIC: read-out: MIC", "outline": "as §2"}, "[19]": {"test_system": "B. subtilis PSB3", "test": "MIC, broth microdilution, B. subtilis PSB3", "type": "cell-based, Bacillus subtilis", "description": "(§4) The minimum inhibitory concentration (MIC) was determined using the broth microdilution method according to the antimicrobial susceptibility testing standards of the clinical and laboratory standards institute ([Clinical and Laboratory Standards Institute [CLSI], 2012]). Ultrapure water and non-inoculated broth were used as controls. In one case, a final concentration of 10 μM vancomycin was included with the vancomycin analog or control antibiotic."}, "[20]": {"test_system": "E. coli XL-1 blue MRF'", "test": "MIC, broth microdilution, E. coli XL-1 blue MRF'", "type": "cell-based, Escherichia coli", "settings": "E. coli XL-1 blue MRF'", "description": "as §4"}, "[21]": {"settings": "ratio of MIC of vancomycin and MIC of analogue"}},
  "note": "Where two headings read alike, the source gives them in different places.",
  "data": [
    {"molecule": "CCCCC#Cc1ccc(/C=C/C(=O)NCCNC(=O)[C@H]2NC(=O)[C@H]3NC(=O)[C@H](NC(=O)[C@@H]4NC(=O)[C@H](CC(N)=O)NC(=O)[C@H](NC(=O)[C@@H](CC(C)C)NC)[C@H](O)c5ccc(c(Cl)c5)Oc5cc4cc(c5O[C@@H]4O[C@H](CO)[C@@H](O)[C@H](O)[C@H]4O[C@H]4C[C@](C)(N)[C@H](O)[C@H](C)O4)Oc4ccc(cc4Cl)[C@H]3O)c3ccc(O)c(c3)-c3c(O)cc(O)cc32)cc1", "note": "[Vanc-48]", "values": [
      {"measurement": "MIC-fold improvement vs. vancomycin", "setting": "[1]", "result": "up to 45"},
      {"measurement": "MIC", "setting": "[1]; C. difficile ATJ ribotype 014/20, plate drop assay", "result": 0.78, "unit": "µM"},
      {"measurement": "MIC-fold improvement vs. vancomycin", "setting": "[1]; listed as Vanc- 48", "result": 45},
      {"measurement": "MIC", "setting": "[2]; Enterococcus faecalis VRE 53 (vancomycin-resistant)", "result": 6.25, "unit": "µM"},
      {"measurement": "MIC-fold improvement vs. vancomycin", "setting": "[2]; VRE 53, ratio of MIC of vancomycin and MIC of analogue", "result": 64},
      {"measurement": "MIC-fold improvement vs. vancomycin", "setting": "[3]; MRSA KS2, ratio of MIC of vancomycin and MIC of analogue", "result": 4},
      {"measurement": "MIC", "setting": "[3]; Staphylococcus aureus MRSA KS2, read-out: MIC", "result": 0.20, "unit": "µM"},
      {"measurement": "MIC-fold improvement vs. vancomycin", "setting": "[4]; MRSA KS1, ratio of MIC of vancomycin and MIC of analogue", "result": ">8"},
      {"measurement": "MIC", "setting": "[4]; Staphylococcus aureus MRSA KS1, read-out: MIC", "result": "<0.10", "unit": "µM"},
      {"measurement": "MIC", "setting": "[5]; Staphylococcus aureus VRSA, read-out: MIC", "result": 1.56, "unit": "µM"},
      {"measurement": "MIC-fold improvement vs. vancomycin", "setting": "[5]; VRSA, ratio of MIC of vancomycin and MIC of analogue", "result": 64},
      {"measurement": "MIC", "setting": "[6]; Enterococcus faecalis VRE 29 (vancomycin-resistant), read-out: MIC", "result": 3.13, "unit": "µM"},
      {"measurement": "MIC-fold improvement vs. vancomycin", "setting": "[6]; VRE 29, ratio of MIC of vancomycin and MIC of analogue", "result": 128},
      {"measurement": "MIC-fold improvement vs. vancomycin", "setting": "[7]; MRSA KS6, ratio of MIC of vancomycin and MIC of analogue", "result": 0.25},
      {"measurement": "MIC", "setting": "[7]; Staphylococcus aureus MRSA KS6, read-out: MIC", "result": 3.13, "unit": "µM"},
      {"measurement": "MIC", "setting": "[8]; Staphylococcus aureus VISA/HIP5827, read-out: MIC", "result": 1.56, "unit": "µM"},
      {"measurement": "MIC-fold improvement vs. vancomycin", "setting": "[8]; VISA/HIP5827, ratio of MIC of vancomycin and MIC of analogue", "result": 4},
      {"measurement": "MIC", "setting": "[9]; Enterococcus faecalis VRE 37 (vancomycin-resistant), read-out: MIC", "result": 3.13, "unit": "µM"},
      {"measurement": "MIC-fold improvement vs. vancomycin", "setting": "[9]; VRE 37, ratio of MIC of vancomycin and MIC of analogue", "result": 128},
      {"measurement": "MIC-fold improvement vs. vancomycin", "setting": "[10]; MRSA KS8, ratio of MIC of vancomycin and MIC of analogue", "result": 2},
      {"measurement": "MIC", "setting": "[10]; Staphylococcus aureus MRSA KS8, read-out: MIC", "result": 0.39, "unit": "µM"},
      {"measurement": "IC50", "setting": "[11]", "result": "142 ± 21", "unit": "µM"},
      {"measurement": "MIC-fold improvement vs. vancomycin", "setting": "[12]", "result": "≤ 58"},
      {"measurement": "MIC", "setting": "[12]; C. difficile AIU ribotype 027, plate drop assay", "result": 0.78, "unit": "µM"},
      {"measurement": "MIC-fold improvement vs. vancomycin", "setting": "[12]; listed as Vanc- 48", "result": 58},
      {"measurement": "IC50", "setting": "[13]", "result": "> 250", "unit": "µM"},
      {"measurement": "IC50", "setting": "[14]", "result": "83 ± 11", "unit": "µM"},
      {"measurement": "MIC", "setting": "[15]; Enterococcus faecalis VRE 6 (vancomycin-resistant)", "result": 1.56, "unit": "µM"},
      {"measurement": "MIC-fold improvement vs. vancomycin", "setting": "[15]; VRE 6, ratio of MIC of vancomycin and MIC of analogue", "result": 128},
      {"measurement": "MIC", "setting": "[16]; Staphylococcus aureus VSSA, read-out: MIC", "result": 0.20, "unit": "µM"},
      {"measurement": "MIC-fold improvement vs. vancomycin", "setting": "[16]; VSSA, ratio of MIC of vancomycin and MIC of analogue", "result": 4},
      {"measurement": "IC50", "setting": "[17]", "result": 158, "unit": "µM"},
      {"measurement": "MIC", "setting": "[18]; Enterococcus faecalis VSE 1 (vancomycin-sensitive)", "result": 0.78, "unit": "µM"},
      {"measurement": "MIC-fold improvement vs. vancomycin", "setting": "[18]; VSE 1, ratio of MIC of vancomycin and MIC of analogue", "result": 2}
    ]},
    {"molecule": "C#CCNC(=O)[C@H]1NC(=O)[C@H]2NC(=O)[C@H](NC(=O)[C@@H]3NC(=O)[C@H](CC(N)=O)NC(=O)[C@H](NC(=O)[C@@H](CC(C)C)NC)[C@H](O)c4ccc(c(Cl)c4)Oc4cc3cc(c4O[C@@H]3O[C@H](CO)[C@@H](O)[C@H](O)[C@H]3O[C@H]3C[C@](C)(N)[C@H](O)[C@H](C)O3)Oc3ccc(cc3Cl)[C@H]2O)c2ccc(O)c(c2)-c2c(O)cc(O)cc21", "note": "[Vanc-G]", "values": [
      {"measurement": "MICvanc/MICi", "setting": "[2]; E. faecalis VRE 53, ratio of MIC of vancomycin and MIC of analogue", "result": 8},
      {"measurement": "MIC", "setting": "[2]; E. faecalis VRE 53", "result": 50, "unit": "µM"},
      {"measurement": "MIC", "setting": "[19]", "result": 0.78, "unit": "µM"},
      {"measurement": "MICvanc/MICi", "setting": "[19]; [21]", "result": 0.5},
      {"measurement": "MICvanc/MICi", "setting": "[15]; E. faecalis VRE 6, ratio of MIC of vancomycin and MIC of analogue", "result": 2},
      {"measurement": "MIC", "setting": "[15]; E. faecalis VRE 6", "result": 100, "unit": "µM"},
      {"measurement": "MIC", "setting": "[20]", "result": 12.5, "unit": "µM"},
      {"measurement": "MICvanc/MICi", "setting": "[20]; [21]", "result": 8},
      {"measurement": "MICvanc/MICi", "setting": "[18]; E. faecalis VSE 1, ratio of MIC of vancomycin and MIC of analogue", "result": 4},
      {"measurement": "MIC", "setting": "[18]; E. faecalis VSE 1", "result": 0.39, "unit": "µM"}
    ]}
  ]
}
